Experimental data taken from patent US20260345641A1, “COMPOSITIONS AND USES THEREOF” (Algorae Pharmaceuticals Ltd, priority 2023, published 2026).

System: SH-SY5Y cells
Test: Gene expression analysis by RNA sequencing in the presence of Aβ
Type: cell-based, human
Settings: 5 μM, with Aβ
Excerpt: The SH-S5Y5 neuroblastoma cell line was used for pre-clinical analysis. The SH-S5Y5 cell line is commonly used as a model for neurodegenerative disorders as the cells can be converted to various types of functional neurons by the addition of specific compounds (see, e.g., Xicoy et al., 2017, Molecular Neurodegeneration, 12: 10). In addition, the SH-S5Y5 cell line has been used widely in experimental neurological studies, including analysis of neuronal differentiation, metabolism, and function related to neurodegenerative processes, neurotoxicity and neuroprotection (see, e.g., Datki et al., 2003, Brain Research Bulletin, 62(3): 22-229; and Xie et al., 2010, Chinese Medical Journal, 123(8): 1086-1092).
Total RNA was isolated from cells using TRIzol in accordance with the manufacturer's instructions (Invitrogen, Carlsbad, CA, USA). RNA concentration and quality was assessed using a NanoDrop spectrophotometer. Only samples with a 260/280 ratio of ≥1.8 were used for further analysis.
Messenger RNA (mRNA) was purified from total RNA using poly-T oligo attached magnetic beads. After fragmentation, cDNA synthesis was performed in accordance with the manufacturer's instructions (Illumina, San Diego, CA, USA) to generate a directional and non-directional library. Libraries were checked with Qubit, real-time PCR was performed for quantification, and size distribution detection was performed using the Bioanalyzer. Quantified libraries were pooled and sequenced on an Illumina platform, according to the manufacturer's instructions.
Raw reads were filtered and mapped to human reference genome (GRCh38/hg38) using HISAT2. Differential gene expression analysis was performed using R Package DEG seq2. […] Manual annotation of genes previously associated with specific neurodegenerative disorders and dementias was performed following a text mining analysis.

COc1cc2c(cc1OC)C(=O)C(CC1CCN(Cc3ccccc3)CC1)C2 (stereo not shown) [Donepezil]
MEG3 gene expression (control 0.007, P 0.038): 0.008 | SAMD12 gene expression (control 0.011, P 0.052): 0.002 | TNF gene expression (control 0.032, P 0.046): 0.026 | ATXN7 gene expression (control 0.042, P 0.014): 0.150 | PRICKLE2 gene expression (control 0.060, P 0.007): 0.085 | IRF4 gene expression (control 0.076, P 0.050): 0.010 | NRXN1 gene expression (control 0.085, P 0.007): 0.125 | DNAH8 gene expression (control 0.090, P 0.017): 0.009 | MME gene expression (control 0.091, P 0.004): 0.240 | CLN3 gene expression (control 0.092, P 0.051): 0.093 | DMD gene expression (control 0.166, P 0.017): 0.352 | PPP2R2B gene expression (control 0.179, P 0.056): 0.146 | PRSS23 gene expression (control 0.196, P 0.022): 0.193 | ACE gene expression (control 0.209, P 0.004): 0.644 | A2M gene expression (control 0.242, P 0.006): 0.122 | TCIRG1 gene expression (control 0.302, P 0.023): 0.340 | SLC1A1 gene expression (control 0.314, P 0.003): 0.482 | NTNG1 gene expression (control 0.327, P 0.009): 0.249 | NTRK2 gene expression (control 0.329, P 0.015): 0.700 | PIH1D2 gene expression (control 0.334, P 0.023): 0.137 | TUBA4A gene expression (control 0.334, P 0.053): 0.432 | FGFR2 gene expression (control 0.353, P 0.053): 0.228 | PDE11A gene expression (control 0.366, P 0.020): 0.416 | TUNAR gene expression (control 0.382, P 0.009): 0.441 | RETREG1 gene expression (control 0.386, P 0.001): 0.774 | SORL1 gene expression (control 0.455, P 0.009): 0.683 | DPY19L2P2 gene expression (control 0.469, P 0.040): 0.560 | TRIM9 gene expression (control 0.529, P 0.008): 1.021 | MATR3 gene expression (control 0.559, P 0.001): 0.511 | SYCE2 gene expression (control 0.567, P 0.049): 0.604 | PLA2G6 gene expression (control 0.634, P 0.016): 0.830 | DEPDC5 gene expression (control 0.656, P 0.020): 0.683 | CLN5 gene expression (control 0.695, P 0.004): 0.652 | SLC9B1 gene expression (control 0.735, P 0.053): 0.713 | PLAU gene expression (control 0.799, P 0.005): 1.790 | ATXN1 gene expression (control 0.851, P 0.002): 1.152 | IRAK1BP1 gene expression (control 0.866, P 0.030): 0.848 | PRPH gene expression (control 0.870, P 0.011): 1.132 | FHIT gene expression (control 0.882, P 0.033): 1.086 | CFAP43 gene expression (control 0.931, P 0.049): 0.636 | TMEM63A gene expression (control 0.954, P 0.055): 1.141 | LRRC56 gene expression (control 0.982, P 0.002): 1.129 | PARD3B gene expression (control 0.986, P 0.002): 1.168 | ADCY5 gene expression (control 1.228, P 0.036): 1.662 | DISC1 gene expression (control 1.302, P 0.033): 1.242 | KCNT1 gene expression (control 1.355, P 0.002): 1.707 | GAN gene expression (control 1.529, P 0.018): 1.495 | DPP10 gene expression (control 1.590, P 0.009): 1.562 | CHRNB4 gene expression (control 1.624, P 0.018): 2.920 | MEF2C gene expression (control 1.668, P 0.044): 1.624 | PACRG gene expression (control 1.720, P 0.027): 1.797 | CDKL5 gene expression (control 1.735, P 0.001): 2.077 | SIL1 gene expression (control 1.736, P 0.021): 1.886 | PDLIM3 gene expression (control 1.777, P 0.026): 3.231 | MT-TH gene expression (control 1.782, P 0.047): 0.388 | MT-TD gene expression (control 1.849, P 0.032): 2.334 | MMACHC gene expression (control 1.874, P 0.018): 1.731 | ZFYVE26 gene expression (control 1.909, P 0.032): 1.930 | TMLHE gene expression (control 1.915, P 0.004): 2.188 | MAPT gene expression (control 1.915, P 0.007): 2.615 | MSRA gene expression (control 1.969, P 0.027): 1.709 | COQ2 gene expression (control 1.970, P 0.055): 1.406 | PINK1-AS gene expression (control 1.974, P 0.029): 1.689 | DLG2 gene expression (control 1.977, P 0.041): 2.816 | FZD3 gene expression (control 1.990, P 0.010): 2.276 | KATNAL2 gene expression (control 2.005, P 0.000): 2.056 | ALMS1 gene expression (control 2.170, P 0.003): 2.220 | HOTAIR gene expression (control 2.219, P 0.008): 1.982 | SETD1B gene expression (control 2.501, P 0.005): 3.039 | DRD2 gene expression (control 2.532, P 0.031): 4.790 | SMARCA2 gene expression (control 2.546, P 0.044): 2.658 | MFSD8 gene expression (control 2.553, P 0.038): 2.381 | BDNF gene expression (control 2.554, P 0.014): 0.255 | ABCA7 gene expression (control 2.607, P 0.032): 2.087 | FSD1L gene expression (control 2.639, P 0.002): 2.451 | ROGDI gene expression (control 2.747, P 0.055): 3.041 | SPG7 gene expression (control 2.790, P 0.011): 2.471 | MT-TW gene expression (control 2.846, P 0.019): 2.620 | ATP1A3 gene expression (control 2.847, P 0.021): 3.739 | ATL1 gene expression (control 2.891, P 0.027): 3.208 | GM2A gene expression (control 2.985, P 0.005): 5.621 | LYST gene expression (control 3.000, P 0.053): 2.468 | APOL2 gene expression (control 3.111, P 0.054): 3.390 | DCX gene expression (control 3.114, P 0.003): 3.488 | IFT74 gene expression (control 3.453, P 0.032): 4.207 | CLN8 gene expression (control 3.580, P 0.014): 2.847 | RBM12 gene expression (control 3.638, P 0.000): 3.884 | PRICKLE1 gene expression (control 3.757, P 0.002): 3.333 | DPH1 gene expression (control 3.762, P 0.040): 3.962 | TRAPPC9 gene expression (control 3.776, P 0.021): 4.781 | EIF2B3 gene expression (control 3.828, P 0.043): 3.200 | PDE10A gene expression (control 3.855, P 0.030): 3.147 | TRAPPC2 gene expression (control 3.872, P 0.053): 4.012 | C9orf72 gene expression (control 3.921, P 0.001): 8.663 | TFEB gene expression (control 4.181, P 0.001): 2.618 | PODXL gene expression (control 4.194, P 0.011): 4.847 | ATP6V0A2 gene expression (control 4.281, P 0.017): 4.607 | TTC21B gene expression (control 4.351, P 0.026): 4.248 | VPS13D gene expression (control 4.370, P 0.001): 4.565 | PIGQ gene expression (control 4.438, P 0.008): 4.983 | PTPRM gene expression (control 4.505, P 0.000): 4.710 | RHOBTB2 gene expression (control 4.522, P 0.012): 5.349 | MRE11 gene expression (control 4.546, P 0.036): 4.436 | EHMT1 gene expression (control 4.566, P 0.010): 4.445 | CYLD gene expression (control 4.607, P 0.036): 3.887 | PRDM8 gene expression (control 4.779, P 0.013): 3.461 | RNF213 gene expression (control 4.801, P 0.002): 5.276 | USP8 gene expression (control 4.840, P 0.047): 3.827 | LIG3 gene expression (control 4.935, P 0.007): 5.232 | MIAT gene expression (control 5.041, P 0.014): 6.814 | JAM2 gene expression (control 5.256, P 0.040): 4.131 | PSEN2 gene expression (control 5.259, P 0.051): 5.579 | LMBRD1 gene expression (control 5.367, P 0.022): 5.309 | NPC1 gene expression (control 5.515, P 0.001): 6.062 | OPA1 gene expression (control 5.517, P 0.001): 9.622 | VAPB gene expression (control 5.611, P 0.005): 5.235 | ANXA11 gene expression (control 5.661, P 0.025): 6.974 | MT-TI gene expression (control 5.685, P 0.038): 4.404 | GOSR2 gene expression (control 5.846, P 0.000): 5.640 | LDLR gene expression (control 5.953, P 0.003): 7.563 | DDHD2 gene expression (control 6.006, P 0.000): 6.144 | SREBF1 gene expression (control 6.248, P 0.024): 8.317 | SLC25A24 gene expression (control 6.258, P 0.036): 5.685 | CREB1 gene expression (control 6.333, P 0.006): 7.340 | FIG4 gene expression (control 6.430, P 0.051): 6.116 | BLMH gene expression (control 6.516, P 0.013): 6.896 | APTX gene expression (control 6.525, P 0.011): 6.767 | TPP1 gene expression (control 6.541, P 0.009): 7.171 | ADAM10 gene expression (control 6.563, P 0.019): 5.824 | MT-TA gene expression (control 6.758, P 0.027): 2.804 | RAB33A gene expression (control 6.793, P 0.003): 6.922 | MT-TC gene expression (control 6.838, P 0.052): 10.995 | MECP2 gene expression (control 6.880, P 0.033): 5.530 | SPAST gene expression (control 6.944, P 0.053): 5.978 | TMEM106B gene expression (control 7.108, P 0.005): 6.957 | CRAT gene expression (control 7.227, P 0.031): 9.692 | CSTB gene expression (control 7.261, P 0.008): 9.549 | IRF6 gene expression (control 7.365, P 0.000): 5.933 | TRPM7 gene expression (control 7.393, P 0.030): 5.958 | OTUD6B gene expression (control 7.405, P 0.048): 6.534 | MAPK8 gene expression (control 7.482, P 0.022): 9.392 | POLR1C gene expression (control 7.525, P 0.034): 6.234 | CHCHD10 gene expression (control 7.586, P 0.010): 11.163 | ATL3 gene expression (control 7.656, P 0.030): 6.616 | WDR37 gene expression (control 7.709, P 0.023): 7.870
